According to patent US5654296A, “Condensed heterocyclic compounds, their production and use” (priority 1994, dated 1997):
Counter-ions that a name gives are not always drawn.

What was measured:
[1] = test system: norepinephrine (NE) uptake; test: Activity to inhibit norepinephrine (NE) uptake; assay type: biochemical; conditions: rat cerebral cortex; 3H-NE; read-out: NE uptake inhibitory activity (IC50 μM)
Description: The experiment was performed in accordance with the method of Hyttel et al. [Psychopharmacology 60, 13, 1978]. The whole brain of a rat was homogenized in 40 volumes of ice-cooled 0.32M sucrose solution containing 10 μM pargyline and, then, centrifuged (600×G) for 10 minutes. The supernatant was centrifuged (2500×G) for 55 minutes to provide a pellet. This pellet was suspended in Krebs-Ringer-phosphate buffer (pH 7.4; 122 mM NaCl, 4.82 mM KCl, 0.972 mM CaCl2, 1.21 mM MgSO4, 12.7 mM Na2 HPO4, 2.97 mM NaH2 PO4, 0.162 mM EDTA sodium, 10 mM glucose, 1.14 mM ascorbic acid) saturated with a mixed gas (95% O and 5% CO2). To 900 μl of this suspention was added a solution of the test drug (10 μl) in DMSO and the mixture was incubated at 37° C. for 5 minutes. Then, 100 μl of ^3 H-5-HT (final concentration 10 nM) was added and the mixture was further incubated at 37° C. for 5 minutes. This reaction mixture was filtered under suction using a GF/B filter and the filter was washed with 4 ml of the above-mentioned buffer. The radioactivity on the filter was measured by the liquid scintillation method.
(b) Activity to inhibit norepinephrine (NE) uptake
Using the rat cerebral cortex and, as the substrate, ^3 H-NE, an experiment was performed by otherwise the same procedure as described for 5-HT.

[2] = target: T1, GnRH receptors (rat pituitary anterior lobe membrane fraction) (Rattus norvegicus, UniProt P30969); test: 125I-leuprolerin GnRH receptor binding inhibition test, rat pituitary anterior lobe membrane fraction; conditions: 4° C., 90 minutes, read-out: Binding inhibitory activity (IC50 μM) Rat
T1 construct: the anterior lobe of the pituitary gland was isolated and washed with ice-cooled homogenate buffer; from tissue; host or cells: anterior lobe of the pituitary gland, male Wistar rats (8 weeks old), membrane fraction
T1 sequence (P30969 1-327): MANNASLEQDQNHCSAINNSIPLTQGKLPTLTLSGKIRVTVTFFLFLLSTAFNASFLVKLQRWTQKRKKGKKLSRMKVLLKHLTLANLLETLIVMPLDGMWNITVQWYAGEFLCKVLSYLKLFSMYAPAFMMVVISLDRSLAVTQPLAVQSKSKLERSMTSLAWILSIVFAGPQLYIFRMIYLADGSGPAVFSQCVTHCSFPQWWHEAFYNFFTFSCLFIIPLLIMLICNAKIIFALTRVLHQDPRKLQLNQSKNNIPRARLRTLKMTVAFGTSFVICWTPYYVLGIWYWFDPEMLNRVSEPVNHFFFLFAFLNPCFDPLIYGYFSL
Description: Ten (10) μl of 3×10^4 M aqueous leuprolerin solution and 10 μl of 0.01 mg/ml lactoperoxidase were taken in a tube and 10 μl of Na^125 I solution (37 MBq) was added. After stirring, 10 μl of 0.001% H2 O2 was added and the reaction was conducted at room temperature for 20 minutes. Then, 700 μl of 0.05% TFA solution was added to the tube to terminate the reaction and the reaction mixture was purified by reverse-phase HPLC. The HPLC conditions are shown below. ^125 I-leuprolerin was eluted after a retention time of 26-27 minutes. (B) Preparation of a Rat Pituitary Anterior Lobe Membrane Fraction Containing GnRH Receptors […] The pituitary tissue was floated in 2 ml of the homogenate buffer and homogenized using a Polytron homogenizer. The homogenate was centrifuged at 700×G for 15 minutes. The supernatant was taken in an ultracentrifuge tube and centrifuged at 100,000×G for 1 hour to provide a membrane fraction pellet. […] The membrane fraction recovered as a pellet was resuspended in 10 ml of assay buffer, divided into portions, preserved at -80° C. and thawed when needed. […] For the rat and human membrane fractions prepared in (B) and (D), each membrane fraction was diluted with assay buffer to a concentration of 200 μg/ml and distributed in 188 μl portions into tubes. As to the bovine membrane fraction prepared in (C), the membrane fraction was diluted with assay buffer to 750 μg/ml and distributed in 188 μl portions into tubes. […] Where the rat or bovine pituitary anterior lobe membrane fraction was used, the reaction was conducted at 4° C. for 90 minutes. Where the membrane fraction of the CHO with human GnRH receptors expressed was used, the reaction was carried out at 25° C. for 60 minutes. […] After filtration, the radioactivity of ^125 I-leuprolerin remaining on the filter was measured with a γ-counter. The expression (TB-SB)/(TB-NSB)×100 (where SB=radioactivity with the compound added, TB=maximum bound radioactivity, NSB=nonspecifically bound radioactivity) was calculated to find the binding inhibition rate of each test compound.

SMILES | IC50 [1] [µM] | IC50 [2] [µM]
COc1ccc2c(c1)CCC1(CCCCN1CCCC1(c3ccccc3)COCc3ccccc31)C2 (centres unmarked) [Example I-36, 3,4-Dihydro-6-methoxy-1'-[3-(4-phenylisochroman-4-yl)propyl]spiro[naphthalene-2(1H),2'-piperidine] hydrochloride] | 0.41 | 0.6
COC(=O)c1cccc(CNCCCC2(c3ccccc3)COCc3ccccc32)c1 (stereo not drawn) [Example I-45, Methyl α-[3-(4-Phenylisochroman-4-yl)propylamino]-m-toluate hydrochloride] | – | 0.5
c1ccc(CCNCCCC2(c3ccccc3)COCc3ccccc32)cc1 (stereo not drawn) [Example I-24, 4-[3-(β-Phenethylamino)propyl]-4-phenylisochroman hydrochloride] | 0.22 | 0.9
c1ccc(C2(CCCN3CCCCC34CCc3ccccc3C4)COCc3ccccc32)cc1 (centres unmarked) [Example I-35, 3,4-Dihydro-1'-[3-(4-phenylisochroman-4-yl)propyl]spiro[naphthalene-2(1H),2'-piperidine] hydrochloride] | 0.3 | 0.7
COc1cc2c(cc1OC)CC1(CCCCN1CCCCC1(c3ccccc3)COCc3ccccc31)CC2 (centres unmarked) [Example I-52, 3,4-Dihydro-6,7-dimethoxy-1'-[4-(4-phenylisochroman-4-yl)butyl]spiro[naphthalene-2(1H),2'-piperidine] hydrochloride] | – | 0.03
